Experimental data from US8536231B2, “Methods for treating diabetic foot ulcers” (priority 2011, dated 2013).
Non-standard residues stand in square brackets, D forms with d. Residues, ends and D or L forms follow the SMILES beside them. Nle = CCCC[C@H](N)C(=O)O

System: diabetic foot ulcers
Conditions: human, in vivo
Description: The study was designed as a randomized, parallel-group, double-blind, placebo-controlled, multi-center trial. After 14-days of best-of-care to evaluate ulcer healing and ensure the wounds were chronic, four-weeks of active treatment were then followed by eight weeks of observation and assessment. The study compared the effects of two concentrations of NorLeu^3-A(1-7) and placebo, measuring both clinical efficacy and safety. Sustained tissue integrity was evaluated for all subjects during a follow-up period lasting 12 weeks after complete wound closure.
Subjects were randomized in a 1:1:1 ratio to one of the three treatment groups: • Group 1: Placebo Vehicle Control without NorLeu^3-A(1-7) (also referred to as “DSC127”) (2% Hydroxyethyl Cellulose (HEC) with 0.1% methyl paraben, 0.02% propyl paraben) • Group 2: 0.03% NorLeu^3-A(1-7) in Vehicle • Group 3: 0.01% NorLeu^3-A(1-7) in Vehicle
The four-week treatment period required daily application of the treatment to the wound site. The first application each week was at the clinic and for the remainder of the week the patient self-administered the treatment.
If wound healing occurred during the treatment or assessment periods a final assessment visit was conducted and the integrity was assessed 4 and 12 weeks later (usually weeks 16 and 24 of the study). […]

CCCC[C@H](NC(=O)[C@H](CCCNC(=N)N)NC(=O)[C@@H](N)CC(=O)O)C(=O)N[C@@H](Cc1ccc(O)cc1)C(=O)N[C@H](C(=O)N[C@@H](Cc1c[nH]cn1)C(=O)N1CCC[C@H]1C(=O)O)[C@@H](C)CC [NorLeu^3-A(1-7), Asp-Arg-Nle-Tyr-Ile-His-Pro] (H-DR[Nle]YIHP-OH; N-terminus and C-terminus assumed)
adverse events associated with treatment: no significant adverse events | tolerability: well-tolerated
